Laboratory results published in PubChem BioAssay (NCI).
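Where inhibition never reached the appropriate level, the endpoint shown equals the highest concentration tested. Otherwise, values were interpolated linearly from a five-concentration, 48-hour dose response in 96-well plates. GI50 is the concentration that inhibits growth by half. TGI marks complete inhibition of growth.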

What was measured:
Experiment in all cases: NCI anticancer screen, dose series, 48 h
A549 NSCLC = system: A549 NSCLC
KM12 colon = system: KM12 colon
OVCAR-3 ovarian = system: OVCAR-3 ovarian
UO-31 renal = system: UO-31 renal
HT29 colon = system: HT29 colon
HCT-15 colon = system: HCT-15 colon
SF-539 CNS = system: SF-539 CNS
RPMI-8226 leukemia = system: RPMI-8226 leukemia
T-47D breast = system: T-47D breast
CCRF-CEM leukemia = system: CCRF-CEM leukemia
SW-620 colon = system: SW-620 colon
UACC-257 melanoma = system: UACC-257 melanoma
SK-OV-3 ovarian = system: SK-OV-3 ovarian
SNB-19 CNS = system: SNB-19 CNS
MDA-MB-435 = system: MDA-MB-435
IGROV1 ovarian = system: IGROV1 ovarian
NCI/ADR-RES ovarian = system: NCI/ADR-RES ovarian
MDA-MB-231 breast = system: MDA-MB-231 breast
M14 melanoma = system: M14 melanoma
NCI-H460 lung = system: NCI-H460 lung
MALME-3M melanoma = system: MALME-3M melanoma
DU-145 prostate = system: DU-145 prostate
ACHN renal = system: ACHN renal
SK-MEL-2 melanoma = system: SK-MEL-2 melanoma
NCI-H226 lung = system: NCI-H226 lung
SNB-75 CNS = system: SNB-75 CNS
MOLT-4 leukemia = system: MOLT-4 leukemia
BT-549 breast = system: BT-549 breast
SF-268 CNS = system: SF-268 CNS
TK-10 renal = system: TK-10 renal
SR leukemia = system: SR leukemia
RXF 393 renal = system: RXF 393 renal
HL-60(TB) leukemia = system: HL-60(TB) leukemia
786-0 renal = system: 786-0 renal
HCT-116 colon = system: HCT-116 colon
SK-MEL-28 melanoma = system: SK-MEL-28 melanoma
PC-3 prostate = system: PC-3 prostate
UACC-62 melanoma = system: UACC-62 melanoma
HS 578T breast = system: HS 578T breast
NCI-H522 lung = system: NCI-H522 lung
COLO 205 colon = system: COLO 205 colon
CAKI-1 renal = system: CAKI-1 renal
U251 CNS = system: U251 CNS
OVCAR-5 ovarian = system: OVCAR-5 ovarian
HOP-62 NSCLC = system: HOP-62 NSCLC
K-562 leukemia = system: K-562 leukemia
HOP-92 NSCLC = system: HOP-92 NSCLC
OVCAR-8 ovarian = system: OVCAR-8 ovarian
MCF7 breast = system: MCF7 breast
HCC-2998 colon = system: HCC-2998 colon
LOX IMVI melanoma = system: LOX IMVI melanoma
EKVX NSCLC = system: EKVX NSCLC
SN12C renal = system: SN12C renal
OVCAR-4 ovarian = system: OVCAR-4 ovarian
NCI-H23 lung = system: NCI-H23 lung

## CC1=C2C(=C[C@@](C)(C=O)[C@@H]2O)C(=O)[C@](C)(O)C12CC2
A549 NSCLC
  GI50: 476 nM
  TGI: 11900 nM
KM12 colon
  GI50: 3090 nM
  TGI: 22200 nM
OVCAR-3 ovarian
  GI50: 1350 nM
  TGI: 5770 nM
UO-31 renal
  GI50: 1700 nM
  TGI: 9010 nM
HT29 colon
  GI50: 1130 nM
  TGI: 88000 nM
HCT-15 colon
  GI50: 842 nM
  TGI: 9100 nM
SF-539 CNS
  GI50: 1480 nM
  TGI: 3330 nM
RPMI-8226 leukemia
  GI50: 7280 nM
  TGI: 52200 nM
T-47D breast
  GI50: 2390 nM
  TGI: 8860 nM
CCRF-CEM leukemia
  GI50: 1740 nM
  TGI: > 100000 nM
SW-620 colon
  GI50: 881 nM
  TGI: > 100000 nM
UACC-257 melanoma
  GI50: 3150 nM
  TGI: 15200 nM
SK-OV-3 ovarian
  GI50: 2660 nM
  TGI: 7790 nM
SNB-19 CNS
  GI50: 2500 nM
  TGI: 12500 nM
MDA-MB-435
  GI50: 2070 nM
  TGI: 4720 nM
IGROV1 ovarian
  GI50: 789 nM
  TGI: 5760 nM
NCI/ADR-RES ovarian
  GI50: 1560 nM
  TGI: 5700 nM
MDA-MB-231 breast
  GI50: 2490 nM
  TGI: 7550 nM
M14 melanoma
  GI50: 1780 nM
  TGI: 5110 nM
NCI-H460 lung
  GI50: 260 nM
  TGI: 710 nM
MALME-3M melanoma
  GI50: 1610 nM
  TGI: 3830 nM
DU-145 prostate
  GI50: 340 nM
  TGI: 10100 nM
ACHN renal
  GI50: 1560 nM
  TGI: 8200 nM
SK-MEL-2 melanoma
  GI50: 2080 nM
  TGI: 4580 nM
NCI-H226 lung
  GI50: 2070 nM
  TGI: 5090 nM
SNB-75 CNS
  GI50: 1580 nM
  TGI: 3950 nM
MOLT-4 leukemia
  GI50: 2180 nM
  TGI: > 100000 nM
BT-549 breast
  GI50: 1590 nM
  TGI: 4730 nM
SF-268 CNS
  GI50: 2590 nM
  TGI: 10300 nM
TK-10 renal
  GI50: 2700 nM
  TGI: 8770 nM
SR leukemia
  GI50: 2160 nM
  TGI: > 100000 nM
RXF 393 renal
  GI50: 277 nM
  TGI: 799 nM
HL-60(TB) leukemia
  GI50: 1470 nM
  TGI: 6970 nM
786-0 renal
  GI50: 2400 nM
  TGI: 10100 nM
HCT-116 colon
  GI50: 569 nM
  TGI: > 100000 nM
SK-MEL-28 melanoma
  GI50: 1960 nM
  TGI: 5030 nM
PC-3 prostate
  GI50: 1550 nM
  TGI: 8260 nM
UACC-62 melanoma
  GI50: 1520 nM
  TGI: 3670 nM
HS 578T breast
  GI50: 1990 nM
  TGI: 5360 nM
NCI-H522 lung
  GI50: 1790 nM
  TGI: 4940 nM
COLO 205 colon
  GI50: 1120 nM
  TGI: 4680 nM
CAKI-1 renal
  GI50: 541 nM
  TGI: 22000 nM
U251 CNS
  GI50: 1050 nM
  TGI: > 100000 nM
OVCAR-5 ovarian
  GI50: 424 nM
  TGI: 4440 nM
HOP-62 NSCLC
  GI50: 2530 nM
  TGI: 14100 nM
K-562 leukemia
  GI50: 2910 nM
  TGI: > 100000 nM
HOP-92 NSCLC
  GI50: 2390 nM
  TGI: 6680 nM
OVCAR-8 ovarian
  GI50: 2390 nM
  TGI: > 100000 nM
MCF7 breast
  GI50: 381 nM
  TGI: 10500 nM
HCC-2998 colon
  GI50: 1380 nM
  TGI: 3480 nM
LOX IMVI melanoma
  GI50: 1160 nM
  TGI: 4430 nM
EKVX NSCLC
  GI50: 2800 nM
  TGI: 8860 nM
SN12C renal
  GI50: 2850 nM
  TGI: 51500 nM
OVCAR-4 ovarian
  GI50: 2040 nM
  TGI: 7070 nM
NCI-H23 lung
  GI50: 666 nM
  TGI: 2450 nM
